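Protocol summary: plate cells (96-well), add compound at 5 concentrations, incubate 48 h, interpolate endpoints linearly. TGI marks complete inhibition of growth.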
Tests used:
Assay in all cases: DTP human tumour cell line panel, 48 h
NCI-H23 lung = system: NCI-H23 lung
OVCAR-3 ovarian = system: OVCAR-3 ovarian
MALME-3M melanoma = system: MALME-3M melanoma
HOP-62 NSCLC = system: HOP-62 NSCLC
SF-539 CNS = system: SF-539 CNS
SF-268 CNS = system: SF-268 CNS
COLO 205 colon = system: COLO 205 colon
HT29 colon = system: HT29 colon
SN12C renal = system: SN12C renal
NCI-H460 lung = system: NCI-H460 lung
HCT-15 colon = system: HCT-15 colon
UO-31 renal = system: UO-31 renal
MDA-MB-231 breast = system: MDA-MB-231 breast
IGROV1 ovarian = system: IGROV1 ovarian
NCI-H522 lung = system: NCI-H522 lung
PC-3 prostate = system: PC-3 prostate
SK-MEL-5 melanoma = system: SK-MEL-5 melanoma
MOLT-4 leukemia = system: MOLT-4 leukemia
A498 renal = system: A498 renal
SW-620 colon = system: SW-620 colon
MDA-N = system: MDA-N
CAKI-1 renal = system: CAKI-1 renal
EKVX NSCLC = system: EKVX NSCLC
HCT-116 colon = system: HCT-116 colon
M14 melanoma = system: M14 melanoma
HS 578T breast = system: HS 578T breast
OVCAR-5 ovarian = system: OVCAR-5 ovarian
SNB-75 CNS = system: SNB-75 CNS
U251 CNS = system: U251 CNS
TK-10 renal = system: TK-10 renal
SR leukemia = system: SR leukemia
LOX IMVI melanoma = system: LOX IMVI melanoma
SF-295 CNS = system: SF-295 CNS
UACC-62 melanoma = system: UACC-62 melanoma
RPMI-8226 leukemia = system: RPMI-8226 leukemia
CCRF-CEM leukemia = system: CCRF-CEM leukemia
HCC-2998 colon = system: HCC-2998 colon
K-562 leukemia = system: K-562 leukemia
KM12 colon = system: KM12 colon
SK-MEL-28 melanoma = system: SK-MEL-28 melanoma
RXF 393 renal = system: RXF 393 renal
A549 NSCLC = system: A549 NSCLC
SK-OV-3 ovarian = system: SK-OV-3 ovarian
BT-549 breast = system: BT-549 breast
HOP-92 NSCLC = system: HOP-92 NSCLC
NCI/ADR-RES ovarian = system: NCI/ADR-RES ovarian
UACC-257 melanoma = system: UACC-257 melanoma
MDA-MB-435 = system: MDA-MB-435
SNB-19 CNS = system: SNB-19 CNS
OVCAR-8 ovarian = system: OVCAR-8 ovarian
ACHN renal = system: ACHN renal
DU-145 prostate = system: DU-145 prostate
786-0 renal = system: 786-0 renal
OVCAR-4 ovarian = system: OVCAR-4 ovarian
MCF7 breast = system: MCF7 breast
NCI-H226 lung = system: NCI-H226 lung

Measured: TGI

O=c1c2c([nH]c3cc4c(cc13)OCO4)-c1ccccc1CCC2
38.4 µM: SR leukemia
> 50 µM: all other assays above

— PubChem BioAssay (NCI)
